Reference: patent US4053603A, “Benzylisoquinoline derivatives, and use as anti-arrhythmic drugs” (Astra Pharmaceutical Products, Inc., priority 1976, dated 1977)
Several values for one entry are separate records, joined by “and”; a condition that tells them apart may be missing. Equal values may be shown once. Entries after “also recorded” stand apart in the source; their conditions may differ. Read-outs that look alike come from different tables or passages of the source.

What was measured:
[1] = system: chloroform-induced ventricular fibrillation; assay: protection against chloroform-induced ventricular fibrillation in mice; type: in vivo, mouse (female Swiss albino, Ham/ICR); conditions: for relative Potency (molar basis): ED50^-1 in mmol/kg, standardized to compound 1 = 1; for ED50: Mus musculus, sc, read-out: ED50 for protecting against fibrillation; for antiarrhythmic activity (in words): chloroform fibrillation
Experimental: (§1) Ventricular fibrillation was produced in female Swiss albino mice (Ham/ICR weighing 18-25g.) essentially according to the method described by Lawson in J. Pharm, Exp. Therap. 160, 22 (1968).
The mice were placed individually into a 2,000 ml. beaker with cotton and 50 ml. of chloroform. Immediately after cessation of respiration the mouse was removed from the beaker, the thorax opened and the heart examined for the presence or absence of ventricular fibrillation. Each heart was stimulated by touching with forceps, and the nature of the cardiac rhythm was noted and confirmed by electrocardiographic recordings. The heart was considered to be fibrillating if fine tremulous movements were present on the surface of the ventricle and persisted for at least five seconds after the mechanical stimulus. Ventricular fibrillation was considered absent in those animals in which coordinated ventricular activity was evident following such procedures.
(§2) For initial evaluation of antiarrhythmic activity and toxicity of test compounds, a dose of 100 mg/kg (calculated for the base form, 1% solution in 0.9% saline, adjusted to pH 6-7) was administered subcutaneously to a group of 10 non-fasted, randomly selected mice. […] After 20 minutes they were exposed to chloroform vapors and tested for protection against fibrillation.
For determination of ED50 and relative potency of the compounds, three log-spaced doses of drug were selected to give a low, intermediate, and high degree of protection against fibrillation. Each dose was administered to 10 mice.
The data obtained from the three point assay was computer-analyzed using Berkson's minimum logit chi square analysis. The program was designed to give ED50 values with 95 percent Fieller limits.

[2] = system: mice; assay: central nervous system toxicity observation in mice (ataxia, convulsions, loss of righting reflex, death); type: in vivo, mouse (female Swiss albino, Ham/ICR); conditions: for Toxicity: Death (number of mice) / Toxicity: Ataxia (number of mice) / Toxicity: Con. (Convulsions) (number of mice) / Toxicity: LRR (Loss of righting reflex) (number of mice): 100 mg/kg s.c., 10 mice; for Toxicity: Ataxia (number of mice) / Toxicity: Con. (Convulsions) (number of mice) / Toxicity: LRR (Loss of righting reflex) (number of mice): 20 min observation; for toxicity (in words): mice
Experimental: as §1, §2

[3] = coronary ligated dogs, antiarrhythmic effect and toxicity, intravenous infusion (Harris procedure); type: in vivo, dog; conditions: dog, in vivo, iv
Experimental: (§3) Further confirmation of the superiority of the secondary amine compound was provided by comparison of the secondary and tertiary amines in tests on coronary ligated dogs. The tests were conducted in accordance with the procedure of Harris given in Circulation, 1, 1318, 1950. The drugs were administered by the intravenous route by infusion at a dosage of 0.5 mg./kg./minute, in a volume of 0.97 ml./minute and a concentration of 5.2-4.3 mg/ml. The animals were weighed and the solutions prepared on the day of the experiment.

[4] = system: ventricular arrhythmias in coronary ligated dogs; assay: as above; type: in vivo, dog; conditions: for Mean Arterial Blood Pressure, values after administration / Ventricular Rate, values after administration: i.v. infusion 0.5 mg/kg/minute
Experimental: as §3

[5] = system: heart; conditions: cited from earlier work
[6] = system: central nervous system; conditions: metabolite of lidocaine, high doses of lidocaine; cited from earlier work
[7] = system: mice; assay: central nervous system toxicity observation in mice (ataxia, convulsions, loss of righting reflex, death); type: in vivo, mouse (female Swiss albino, Ham/ICR); conditions: 138 mg/kg s.c., 10 mice
[8] = mice, three log-spaced doses, 10 mice each, 95% Fieller limits in brackets

COc1ccc(Cc2nccc3ccccc23)c(NC(=O)C(C)N)c1OC (stereo not drawn) [Compound 5]
relative Potency (molar basis) [1]: 1
ED50 [1, 8]: 257 mg/kg
antiarrhythmic activity (in words) ([1]; mice): did not show any outstanding properties
Toxicity: Death (number of mice) [2]: 0
Toxicity: Ataxia (number of mice) [2]: 0
Toxicity: Con. (Convulsions) (number of mice) [2]: 0
Toxicity: LRR (Loss of righting reflex) (number of mice) [2]: 0

CCN(CC)CC(=O)Nc1cc(OC)c(OC)cc1Cc1nccc2ccccc12 [Compound 6]
Toxicity: Death (number of mice) [2]: 0
Toxicity: Ataxia (number of mice) [2]: 7
Toxicity: Con. (Convulsions) (number of mice) [2]: 0
Toxicity: LRR (Loss of righting reflex) (number of mice) [2]: 0

CCN(CC)CC(=O)Nc1c(Cc2nccc3ccccc23)ccc(OC)c1OC [Compound 3]
dose producing toxicity ([3]; Dose Producing Toxicity (convulsion)): 15.8 mg/kg
dose producing toxicity ([3]; Dose Producing Toxicity (profound head tremors)): 12.5 mg/kg
abolishing severe arrhythmias (in words) ([4]; coronary ligated dogs, i.v.): effective in abolishing severe arrhythmias
Mean Arterial Blood Pressure, values after administration ([4]; dog): 100 and 90
Ventricular Rate, values after administration ([4]; dog): 153 and 135
Dose Producing Toxicity (profound head tremors) ([4]; dog, in vivo, iv): 6.25 mg/kg
relative Potency (molar basis) [1]: 1
ED50 [1, 8]: 146 mg/kg
antiarrhythmic activity (in words) ([1]; mice): greater antiarrhythmic activity
Toxicity: Death (number of mice) [2]: 0
Toxicity: Ataxia (number of mice) [2]: 0
Toxicity: Con. (Convulsions) (number of mice) [2]: 0
Toxicity: LRR (Loss of righting reflex) (number of mice) [2]: 0
toxicity (in words) [2]: lower toxicity

COc1ccc(Cc2nccc3cc(OC)c(OC)cc23)cc1OC [Papaverine, reference compound]
antiarrhythmic activity (in words) ([1]; mice): only little antiarrhythmic activity
cardiac effect / arrhythmia at clinical doses (in words) ([5]; background, clinical use): doses required were also found to cause dangerous arrhythmias by depression of A-V and intraventricular conduction
Toxicity: Death (number of mice) [2]: 0
Toxicity: Ataxia (number of mice) [2]: 2
Toxicity: Con. (Convulsions) (number of mice) [2]: 0
Toxicity: LRR (Loss of righting reflex) (number of mice) [2]: 0
toxicity (in words) [2]: some evidence of toxicity

CCN(CC)CC(=O)Nc1c(C)cccc1C [Lidocaine, 2-diethylamino-2',6'-acetoxylidide, reference compound]
ED50 [1]: 62 mg/kg
antiarrhythmic activity (in words) ([1]; mice): strong antiarrhythmic activity
antiarrhythmic effectiveness (in words) ([5]; intravenous and intramuscular): proved effective as an antiarrhythmic drug administered both intravenously and intramuscularly
Toxicity: Death (number of mice) [2]: 0

CCNCC(=O)Nc1c(Cc2nccc3ccccc23)ccc(OC)c1OC [Compound 4, 1-(2-[2-ethylamino-acetyl]amino-3,4-dimethoxybenzyl)isoquinoline]
abolishing severe arrhythmias (in words) ([4]; coronary ligated dogs, i.v.): effective in abolishing severe arrhythmias
central nervous system and cardiovascular toxicity at effective doses (in words) ([4]; coronary ligated dogs, i.v.): free from indications of central nervous system and cardiovascular toxicity
dose producing toxicity ([4]; dog, i.v. infusion): (c)
Mean Arterial Blood Pressure, values after administration ([4]; dog): 125 and 85
Ventricular Rate, values after administration ([4]; dog): 147 and 123
relative Potency (molar basis) [1]: 3
ED50 [1, 8]: 54 mg/kg
antiarrhythmic activity (in words) ([1]; mice): markedly higher antiarrhythmic potency than both its tertiary amine congener, compound 3, and lidocaine
Toxicity: Death (number of mice) [2]: 0
Toxicity: Ataxia (number of mice) [2]: 0
Toxicity: Con. (Convulsions) (number of mice) [2]: 0
Toxicity: LRR (Loss of righting reflex) (number of mice) [2]: 0

CCN(CC)CC(=O)Nc1cc(OC)c(OC)cc1Cc1nccc2cc(OC)c(OC)cc12 [Compound 1]
ED50 [1, 8]: 211 mg/kg
antiarrhythmic activity (in words) ([1]; mice): increased the antiarrhythmic activity
Toxicity: Death (number of mice) [2]: 0
Toxicity: Ataxia (number of mice) [2]: 0
Toxicity: Con. (Convulsions) (number of mice) [2]: 0
Toxicity: LRR (Loss of righting reflex) (number of mice) [2]: 0
toxicity (in words) [2]: decreased the central nervous system toxicity

CCNCC(=O)Nc1c(C)cccc1C [monoethylglycinexylidide]
contribution to convulsive symptoms of CNS toxicity (in words) [6]: appears to be the metabolite contributing to the production of the convulsive symptoms of central nervous system toxicity with high doses of lidocaine

CCNCC(=O)Nc1cc(OC)c(OC)cc1Cc1nccc2cc(OC)c(OC)cc12 [Compound 2]
relative Potency (molar basis) [1]: 1
ED50 [1, 8]: 142 mg/kg
antiarrhythmic activity (in words) ([1]; mice): comparable protection against fibrillation at the same test dose
Toxicity: Death (number of mice) [2]: 0
Toxicity: Ataxia (number of mice) [2]: 9
Toxicity: Con. (Convulsions) (number of mice) [2]: 0
Toxicity: LRR (Loss of righting reflex) (number of mice) [2]: 0
toxicity (in words) [2]: toxicity symptoms; also recorded: higher toxicity

CCN(CC)CC(=O)Nc1c(CC2c3ccccc3CCN2C)ccc(OC)c1OC (stereo not drawn) [Compound 7]
relative Potency (molar basis) [1]: 1
ED50 [1, 8]: 160 mg/kg
antiarrhythmic activity (in words) ([1]; mice): essentially the same protection
toxicity (in words) [2]: comparable toxicity characteristics, as compound 1
Toxicity: Ataxia (number of mice) [7]: 0
Toxicity: Con. (Convulsions) (number of mice) [7]: 0
Toxicity: Death (number of mice) [7]: 0
Toxicity: LRR (Loss of righting reflex) (number of mice) [7]: 0
